Experimental data: patent publication US8410151B2, “Aminomethyl benzene derivatives” (Actelion Pharmaceuticals Ltd, priority 2009, dated 2013)

target: recombinant human S1P1 receptor (Homo sapiens, UniProt P21453); assay: GTPγS assay to determine EC50 values; assay type: biochemical; conditions: 35S-GTPγS binding, CHO membranes, human S1P1
Protocol: GTPγS binding assays are performed in 96 well microtiter plates (Nunc, 442587) in a final volume of 200 μl, using membrane preparations of CHO cells expressing recombinant human S1P1 receptor. Assay conditions are 20 mM Hepes (Fluka, 54461), 100 mM NaCl (Fluka, 71378), 5 mM MgCl2 (Fluka, 63064), 0.1% BSA (Calbiochem, 126609), 1 μM GDP (Sigma, G-7127), 2.5% DMSO (Fluka, 41644), 50 pM ^355-GTPγS (Amersham Biosciences, SJ1320). The pH is 7.4. Test compounds are dissolved and diluted in 100% DMSO and pre-incubated at room temperature for 30 min in 150 μl of the above assay buffer, in the absence of ^355-GTPγS. After addition of 50 μl of ^355-GTPγS, the assay is incubated for 1 h at rt. The assay is terminated by transfer of the reaction mixture to a Multiscreen plate (Millipore, MAHFC1H60) using a cell harvester from Packard Biosciences, and the plates are washed with ice-cold 10 mM Na2HPO4/NaH2PO4 (70%/30%), dried, sealed at the bottom and, after addition of 25 μl MicroScint20 (Packard Biosciences, order #6013621), sealed on the top. Membrane-bound ^35S-GTPγS is measured with a TopCount from Packard Biosciences.
EC50 is the concentration of agonist inducing 50% of the maximal specific ^35S-GTPγS binding. Specific binding is determined by subtracting non-specific binding from maximal binding. Maximal binding is the amount of cpm bound to the Multiscreen plate in the presence of 10 μM of S1P. Non-specific binding is the amount of binding in the absence of an agonist in the assay.

Sequence of recombinant human S1P1 receptor (P21453 whole entry): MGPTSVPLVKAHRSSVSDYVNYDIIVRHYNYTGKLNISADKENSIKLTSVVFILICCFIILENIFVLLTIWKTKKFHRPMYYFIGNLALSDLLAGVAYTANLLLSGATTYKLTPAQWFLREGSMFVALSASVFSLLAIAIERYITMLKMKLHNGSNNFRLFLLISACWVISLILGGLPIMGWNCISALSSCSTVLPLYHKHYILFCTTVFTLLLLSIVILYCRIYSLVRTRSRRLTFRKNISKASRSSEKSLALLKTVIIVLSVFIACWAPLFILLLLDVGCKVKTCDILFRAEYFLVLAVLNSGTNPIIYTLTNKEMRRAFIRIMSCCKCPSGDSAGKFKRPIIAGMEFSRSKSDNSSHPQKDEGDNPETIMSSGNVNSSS

EC50	SMILES
> 10000 nM	CNCc1cccc(-c2nc(-c3cc(C)c(OCC(O)CNC(=O)CO)c(C)c3)no2)c1 (racemic) [Example 1]

same assay, conditions: 35S-GTPγS binding, membrane preparations of CHO cells expressing recombinant human S1P1 receptor

SMILES	EC50
CCCCN(CC)Cc1cc(C)cc(-c2nc(-c3cc(C)c(OC[C@@H](O)CNC(=O)CO)c(CC)c3)no2)c1 [Example 21, N—{(S)-3-[4-(5-{3-[(butyl-ethyl-amino)-methyl]-5-methyl-phenyl}-[1,2,4]oxadiazol-3-yl)-2-ethyl-6-methyl-phenoxy]-2-hydroxy-propyl}-2-hydroxy-acetamide]	5.6 nM
CCCN(C)Cc1cc(CC)cc(-c2nc(-c3cc(C)c(OC[C@@H](O)CNC(=O)CO)c(CC)c3)no2)c1 [Example 51, N—{(S)-3-[2-ethyl-4-(5-{3-ethyl-5-[(methyl-propyl-amino)-methyl]-phenyl}-[1,2,4]oxadiazol-3-yl)-6-methyl-phenoxy]-2-hydroxy-propyl}-2-hydroxy-acetamide]	2.4 nM
CCCCN(C)Cc1cc(CC)cc(-c2nc(-c3cc(C)c(OC[C@@H](O)CNC(=O)CO)c(CC)c3)no2)c1 [Example 52, N—{(S)-3-[4-(5-{3-[(butyl-methyl-amino)-methyl]-5-ethyl-phenyl}-[1,2,4]oxadiazol-3-yl)-2-ethyl-6-methyl-phenoxy]-2-hydroxy-propyl}-2-hydroxy-acetamide]	2 nM
CCCc1cc(CN(C)CCC)cc(-c2nc(-c3cc(C)c(OC[C@@H](O)CNC(=O)CO)c(CC)c3)no2)c1 [Example 61, N—{(S)-3-[2-ethyl-6-methyl-4-(5-{3-[(methyl-propyl-amino)-methyl]-5-propyl-phenyl}-[1,2,4]oxadiazol-3-yl)-phenoxy]-2-hydroxy-propyl}-2-hydroxy-acetamide]	3.6 nM
CCCCN(C)Cc1cc(CCC)cc(-c2nc(-c3cc(C)c(OC[C@@H](O)CNC(=O)CO)c(CC)c3)no2)c1 [Example 62, N—{(S)-3-[4-(5-{3-[(butyl-methyl-amino)-methyl]-5-propyl-phenyl}-[1,2,4]oxadiazol-3-yl)-2-ethyl-6-methyl-phenoxy]-2-hydroxy-propyl}-2-hydroxy-acetamide]	3.1 nM

Further lines, results first:

EC50	SMILES
2.2 nM	CCc1cc(-c2noc(-c3cc(C)cc(CN(C)CC(C)C)c3)n2)cc(C)c1OC[C@@H](O)CNC(=O)CO [Example 19, N—{(S)-3-[2-ethyl-4-(5-{3-[(isobutyl-methyl-amino)-methyl]-5-methyl-phenyl}-[1,2,4]oxadiazol-3-yl)-6-methyl-phenoxy]-2-hydroxy-propyl}-2-hydroxy-acetamide]
5.8 nM	CCCCN(C)Cc1ccc(-c2nc(-c3cc(C)c(OC[C@@H](O)CNC(=O)CO)c(CC)c3)no2)cc1C [Example 42, N—{(S)-3-[4-(5-{4-[(butyl-methyl-amino)-methyl]-3-methyl-phenyl}-[1,2,4]oxadiazol-3-yl)-2-ethyl-6-methyl-phenoxy]-2-hydroxy-propyl}-2-hydroxy-acetamide]
3.7 nM	CCc1cc(CN(C)C)cc(-c2nc(-c3cc(C)c(OC[C@@H](O)CNC(=O)CO)c(CC)c3)no2)c1 [Example 49, N—((S)-3-{4-[5-(3-dimethylaminomethyl-5-ethyl-phenyl)-[1,2,4]oxadiazol-3-yl]-2-ethyl-6-methyl-phenoxy}-2-hydroxy-propyl)-2-hydroxy-acetamide]
5.3 nM	CCc1cc(CN(C)CC)cc(-c2nc(-c3cc(C)c(OC[C@@H](O)CNC(=O)CO)c(CC)c3)no2)c1 [Example 50, N—{(S)-3-[2-ethyl-4-(5-{3-ethyl-5-[(ethyl-methyl-amino)-methyl]-phenyl}-[1,2,4]oxadiazol-3-yl)-6-methyl-phenoxy]-2-hydroxy-propyl}-2-hydroxy-acetamide]
8.4 nM	CCCc1cc(CNCC(C)C)cc(-c2nc(-c3cc(C)c(OC[C@@H](O)CNC(=O)CO)c(CC)c3)no2)c1 [Example 58, N—[(S)-3-(2-ethyl-4-{5-[3-(isobutylamino-methyl)-5-propyl-phenyl]-[1,2,4]oxadiazol-3-yl}-6-methyl-phenoxy)-2-hydroxy-propyl]-2-hydroxy-acetamide]
